Data published in patent US5721214A, “Inhibitors of factor Xa” (COR Therapeutics, Inc., priority 1995, dated 1998).
Like-named read-outs stand apart in the source and are kept apart here. Numbered stars: 1 amine (or outer) side, 2 acyl side, 3 side chain; on linkers, the order of the positions; unused ones are H or OH. Square brackets hold non-standard residues; d marks the D form. Peptide text beside a SMILES is read from it. * marks the point of attachment. d(hArg) = N=C(N)NCCCC[C@@H](N)C(=O)O; Hydrocinnamoyl = O=C(CCc1ccccc1)*; dCit = NC(=O)NCCC[C@@H](N)C(=O)O; Suc = O=C(CCC(=O)[*:2])[*:1]; Boc = CC(C)(C)OC(=O)*; Aib = CC(C)(N)C(=O)O

Key:
thrombin = target: T1, thrombin (Homo sapiens, UniProt P00734); experiment: Thrombin amidolytic assay (Chromozym TH); format: biochemical
T1 construct: The formation of thrombin is the result of the proteolytic cleavage of its precursor prothrombin

factor Xa = factor Xa (Homo sapiens, UniProt P00742); experiment: Factor Xa amidolytic assay (chromogenic substrate S-2765); format: biochemical
[1] = Pharmacokinetics/Pharmacodynamics in rabbits after I.V. bolus; format: in vivo; settings: rabbit
[2] = test system: thrombus growth in abdominal vena cava; experiment: Rabbit deep vein thrombosis model; format: in vivo; settings: for Hct / PLT / RBC / WBC: mean±SD
Text: Haemost. […] Rabbits were anesthetized with I.M. injections of Ketamine, Xylazine, and Acepromazine cocktail.

prothrombinase complex = prothrombinase complex (Homo sapiens, UniProt P00742); experiment: Prothrombinase inhibition assay, plasma free system; format: biochemical; settings: 5 min preincubation, factor Xa 0.5 nM, factor Va 2 nM, pH 7.5; read-out: Inhibitory Activity (IC50) Prothrombinase
[3] = 5 min preincubation, room temperature, pH 7.5, read-out: Inhibitory Activity (IC50) Factor Xa
[4] = 5 min preincubation, room temperature, pH 7.5, read-out: Inhibitory Activity (IC50) Thrombin

Chain of factor Xa (P00742 235-488 limits assumed): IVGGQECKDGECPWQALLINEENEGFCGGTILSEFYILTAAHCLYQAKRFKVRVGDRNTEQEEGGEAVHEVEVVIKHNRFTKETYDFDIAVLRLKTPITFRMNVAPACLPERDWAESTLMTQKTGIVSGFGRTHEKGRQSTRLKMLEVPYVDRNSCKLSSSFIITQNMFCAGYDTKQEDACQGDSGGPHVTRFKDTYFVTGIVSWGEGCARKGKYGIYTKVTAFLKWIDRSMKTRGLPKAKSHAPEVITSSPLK
Chain of factor Xa (P00742 41-179 limits assumed): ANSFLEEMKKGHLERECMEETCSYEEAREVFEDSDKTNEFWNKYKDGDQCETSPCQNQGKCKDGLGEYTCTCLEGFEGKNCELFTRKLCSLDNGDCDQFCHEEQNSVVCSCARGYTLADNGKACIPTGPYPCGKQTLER
Chain of prothrombinase complex (P00742 235-488 limits assumed): as the sequence (P00742 235-488 limits assumed) above
Chain of prothrombinase complex (P00742 41-179 limits assumed): as the sequence (P00742 41-179 limits assumed) above

**Q.** Which IC50 (thrombin) does the source give for N=C(N)NCCC[C@@H](C=O)NC(=O)CNC(=O)[C@@H](CCCNC(=N)N)NC(=O)COc1ccc2ccccc2c1 [2-NaphthoxyAc--D--Arg--Gly--Arg--H, 2-Napthoxyacetyl-D-Arg-Gly-Arg-H] here?
**A.** The IC50 was over 100000 nM.

**Q.** Which IC50 (factor Xa; [3]) does the source give for CC(C)(C)OC(=O)N[C@H](CCCNC(=N)N)C(=O)NC(C)(C)C(=O)N[C@H](C=O)CCCNC(=N)N [Boc--D--Arg--Aib--Arg--H, Boc-D-Arg-Aib-Arg-H] (Boc-[dR]-[Aib]-Arg-aldehyde) here?
**A.** The IC50 was 552 nM.

**Q.** Which IC50 (factor Xa; [3]) does the source give for C[C@H](NC(=O)[C@@H](CCCNC(=N)N)NC(=O)OC(C)(C)C)C(=O)N[C@H](C=O)CCCNC(=N)N [Boc--D--Arg--Ala--Arg--H, Boc-D-Arg-Ala-Arg-H] (Boc-[dR]-Ala-Arg-aldehyde) here?
**A.** Its IC50 is 167 nM.

**Q.** With C[C@@H](NC(=O)[C@@H](CCCNC(=N)N)NC(=O)OC(C)(C)C)C(=O)N[C@H](C=O)CCCNC(=N)N [Boc--D--Arg--D--Ala--Arg--H, Boc-D-Arg-D-Ala-Arg-H] (Boc-[dR]-[dA]-Arg-aldehyde) as the compound, how does the IC50 (factor Xa; [3]) read?
**A.** Its IC50 is 230 nM.

**Q.** Which results are given for CC(C)(C)OC(=O)N[C@H](CCCN=C(N)N)C(=O)NCC(=O)N[C@H](C=O)CCCN=C(N)N [Boc--D--Arg--Gly--Arg--H, Boc-D-Arg-Gly-Arg-H] (Boc-[dR]-Gly-Arg-aldehyde)?
**A.** changes in hematological parameters as compared to saline controls ([1]; 2.0 mg/kg I.V. bolus): no significant changes; mean clearance value (CL) ([1]; I.V.): 1.16 mL/min/kg; volume of distribution ([1]; I.V.): 0.1183 L/kg; mean plasma half-life ([1]; I.V., n=3): 1.18 h; Hct ([2]; 200 + 1.98 μg/kg + μg/kg/min): 36.9 ± 3.90%; PLT ([2]; 200 + 1.98 μg/kg + μg/kg/min): 393 ± 84 10^3 /μL; RBC ([2]; 200 + 1.98 μg/kg + μg/kg/min): 5.69 ± 0.14 10^6 /μL; WBC ([2]; 200 + 1.98 μg/kg + μg/kg/min): 4.45 ± 0.97 10^3 /μL; Hct ([2]; 600 + 5.94 μg/kg + μg/kg/min): 35.3 ± 3.01%; PLT ([2]; 600 + 5.94 μg/kg + μg/kg/min): 442 ± 81 10^3 /μL; RBC ([2]; 600 + 5.94 μg/kg + μg/kg/min): 5.74 ± 0.48 10^6 /μL; WBC ([2]; 600 + 5.94 μg/kg + μg/kg/min): 3.87 ± 0.65 10^3 /μL; Hct ([2]; 1000 + 9.90 μg/kg + μg/kg/min): 35.5 ± 1.01%; PLT ([2]; 1000 + 9.90 μg/kg + μg/kg/min): 375 ± 73 10^3 /μL; RBC ([2]; 1000 + 9.90 μg/kg + μg/kg/min): 5.71 ± 0.28 10^6 /μL; WBC ([2]; 1000 + 9.90 μg/kg + μg/kg/min): 5.09 ± 1.61 10^3 /μL; Hct ([2]; 1500 + 14.85 μg/kg + μg/kg/min): 36.0 ± 3.31%; PLT ([2]; 1500 + 14.85 μg/kg + μg/kg/min): 433 ± 22 10^3 /μL; RBC ([2]; 1500 + 14.85 μg/kg + μg/kg/min): 5.80 ± 0.50 10^6 /μL; WBC ([2]; 1500 + 14.85 μg/kg + μg/kg/min): 4.82 ± 1.01 10^3 /μL; effects on hematological parameters as compared to saline controls ([2]; bolus + infusion): no significant effects

**Q.** Which results are given for CC(C)(C)OC(=O)N[C@H](CCCNC(=N)N)C(=O)NCC(=O)N[C@H](C=O)CCCNC(=N)N [Boc--D--Arg--Gly--Arg--H, Boc-D-Arg-Gly-Arg-H] (Boc-[dR]-Gly-Arg-aldehyde)?
**A.** IC50 (factor Xa; [3]): 50 nM; anticoagulative effect ([1]; 2.0 mg/kg I.V. bolus): plasma concentration-dependent anticoagulative effect; % Inhibition of Thrombosis ([2]; 200 + 1.98 μg/kg + μg/kg/min): 8.4%; % Inhibition of Thrombosis ([2]; 600 + 5.94 μg/kg + μg/kg/min): -6.6%; % Inhibition of Thrombosis ([2]; 1000 + 9.90 μg/kg + μg/kg/min): 58.6%; % Inhibition of Thrombosis ([2]; 1500 + 14.85 μg/kg + μg/kg/min): 31.4%; antithrombotic efficacy in the rabbit venous thrombosis model ([2]; bolus + infusion, all doses evaluated): demonstrated antithrombotic efficacy at the higher doses evaluated

**Q.** Which IC50 (thrombin; [4]) does the source give for CC(C)(C)OC(=O)N[C@H](CCCNC(=N)N)C(=O)NCCC(=O)N[C@H](C=O)CCCNC(=N)N [Boc--D--Arg--β-Ala--Arg--H, Boc-D-Arg-β-Ala-Arg-H] here?
**A.** Its IC50 is over 500000 nM.

**Q.** Which results are given for CC(C)(C)OC(=O)N[C@H](CCCNC(N)=O)C(=O)NCC(=O)N[C@H](C=O)CCCN=C(N)N [Boc--D--Cit--Gly--Arg--H, Boc-D-Cit-Gly-Arg-H] (Boc-[dCit]-Gly-Arg-aldehyde)?
**A.** IC50 (factor Xa): 5000 nM; IC50 (prothrombinase complex): 44000 nM

**Q.** With CN(C)C(=NCCCC[C@@H](NC(=O)OC(C)(C)C)C(=O)NCC(=O)N[C@H](C=O)CCCNC(=N)N)N(C)C [Boc--D--Har((CH3)4)--Gly--Arg--H, Boc-D-Har((CH3)4)-Gly-Arg-H] as the compound, how does the IC50 (thrombin; [4]) read?
**A.** The IC50 was over 100000 nM.

**Q.** What does the source list for CC(C)(C)OC(=O)N[C@H](CCCCNC(=N)N)C(=O)NCC(=O)N[C@H](C=O)CCCNC(=N)N [Boc--D--Har--Gly--Arg--H, Boc-D-Har-Gly-Arg-H] (Boc-[d(hArg)]-Gly-Arg-aldehyde)?
**A.** IC50 (factor Xa; [3]): 100 nM; IC50 (prothrombinase complex): 173 nM; IC50 (thrombin; [4]): 405000 nM

**Q.** Which IC50 (factor Xa; [3]) does the source give for CC(C)(C)OC(=O)N[C@H](CCCCN)C(=O)NCC(=O)N[C@H](C=O)CCCNC(=N)N [Boc--D--Lys--Gly--Arg--H, Boc-D-Lys-Gly-Arg-H] (Boc-[dK]-Gly-Arg-aldehyde) here?
**A.** Its IC50 is 10000 nM.

**Q.** With CCOC(=O)N[C@H](CCCN=C(N)N)C(=O)NCC(=O)N[C@H](C=O)CCCN=C(N)N [EtOCO--D--Arg--Gly--Arg--H, EtO2 C-D-Arg-Gly-Arg-H] as the compound, how does the IC50 (factor Xa) read?
**A.** The IC50 was 49 nM.

**Q.** Which IC50 (factor Xa) does the source give for NC(N)=NCCC[C@@H](C=O)NC(=O)CNC(=O)[C@H](N)CCCN=C(N)N [H--D--Arg--Gly--Arg--H, D-Arg-Gly-Arg-H] (H-[dR]-Gly-Arg-aldehyde) here?
**A.** Its IC50 is 64 nM.

**Q.** What about the IC50 (prothrombinase complex) of the same compound?
**A.** The IC50 was 830 nM.

**Q.** And the IC50 (thrombin)?
**A.** The IC50 was 41000 nM.

**Q.** For N=C(N)NCCC[C@@H](C=O)NC(=O)CNC(=O)[C@@H](CCCNC(=N)N)NC(=O)CCC(=O)O [HOOC(CH2)2 CO--D--Arg--Gly--Arg--H, Succinoyl-D-Arg-Gly-Arg-H] (Suc-[dR]-Gly-Arg-aldehyde), which IC50 (factor Xa; [3]) is on record?
**A.** The IC50 was 224 nM.

**Q.** For N=C(N)NCCC[C@@H](C=O)NC(=O)CNC(=O)[C@@H](CCCNC(=N)N)NC(=O)CC(=O)O [HOOCCH2 CO--D--Arg--Gly--Arg--H, Malonoyl-D-Arg-Gly-Arg-H], which IC50 (factor Xa) is on record?
**A.** Its IC50 is 98 nM.

**Q.** Which IC50 (prothrombinase complex) does the source give for N=C(N)NCCC[C@@H](C=O)NC(=O)CNC(=O)[C@@H](CCCNC(=N)N)NC(=O)C(=O)O [HOOCCO--D--Arg--Gly--Arg--H, Oxaloyl-D-Arg-Gly-Arg-H] here?
**A.** The IC50 was 630 nM.

**Q.** For N=C(N)NCCC[C@@H](C=O)NC(=O)CNC(=O)[C@@H](CCCNC(=N)N)NC(=O)CCc1ccccc1 [PhCH2 CH2 CO--D--Arg--Gly--Arg--H, 3-Phenylpropanoyl-D-Arg-Gly-Arg-H] (Hydrocinnamoyl-[dR]-Gly-Arg-aldehyde), which IC50 (factor Xa; [3]) is on record?
**A.** The IC50 was 200 nM.

**Q.** What about the IC50 (prothrombinase complex) of the same compound?
**A.** The IC50 was 2000 nM.

**Q.** And the IC50 (thrombin; [4])?
**A.** Its IC50 is 75000 nM.

**Q.** Which IC50 (thrombin) does the source give for N=C(N)NCCC[C@@H](C=O)NC(=O)CNC(=O)[C@@H](CCCNC(=N)N)NS(=O)(=O)Cc1ccccc1 [PhCH2 SO2 --D--Arg--Gly--Arg--H, Benzylsulfonyl-D-Arg-Gly-Arg-H] here?
**A.** Its IC50 is 33000 nM.
